Laboratory results reported in patent US11147796B2, “Agent for preventing or ameliorating hearing impairment” (Tohoku University, priority 2017, dated 2021).

How the values were obtained:
[1] = tested on: “m.1555A>G mutant” cells; experiment: Amount of ATP production in cells derived from hearing loss patients; assay type: cell-based, human; conditions: compound 10 μM, 12 hours
Method: (§1) In the following Examples 2, 3, and 5, “m.1555A>G mutant” cells were obtained by skin reproductive to a patient having “m.1555A>G mutation” to obtain dermal fibroblasts, then 10% Primary culture was carried out in DMEM (low glucose) culture solution (manufactured by Nacalai Tesque, Inc) containing FBS (Fetal bovine serum) under the condition of 5% CO2/20% O2, at 37° C. and isolated. In the following Examples 4 and 5, the inner ear culture was carried out in DMEM (high glucose) culture medium containing 10% FBS (Fetal bovine serum) under the condition of 5% CO2/20% O2, at 37° C.
[1] Three thousand “m.1555A>G mutant” cells were seeded per well in a 96-well cell culture plate and cultured for 24 hours.
[2] Compound #5 synthesized in Example 1 was mixed into the culture solution to be 10 μM and cultured for 12 hours (compound-treated group). As a control, “m.1555A>G mutant” cells were cultured in a culture medium in the absence of compound #5 (control group) or in a culture medium containing 0.01% DMSO (DMSO-treated group) for 12 hours. The concentration of ATP in the culture solution was measured with “cellular” ATP assay reagent (manufactured by Toyo Binet).

[2] = tested on: skin cells derived from hearing loss patients attributable to other inherited diseases; experiment: Amount of ATP production in skin cells of patients with other inherited diseases; assay type: cell-based, human; conditions: POU4F3 gene mutation, MELAS [m.3243A>G mutation], Alport syndrome
[3] = tested on: inner hair cells; experiment: Survival rate of inner hair cells in cultured inner ear with cisplatin; assay type: cell-based, C57BL/6J mouse; conditions: 48 hours
Method: as §1
[1] The inner ear of C57BL/6J mouse (hereinafter referred to as “P3 mouse”) on the third day after birth was isolated and cultured in a culture solution for 24 hours.
[2] […] Thereafter, washing with TBS (TBST) solution containing 0.3% Triton X-100 for 5 minutes was repeated twice, followed by taking photograph with a fluorescence microscope (BZ-9000, manufactured by Keyence) and observed using BZ-H1 software (manufactured by Keyence). From the obtained image, the number of cells and the number of damaged cells, each of which has a shape of 200 μm each corresponding to each part of the apex turn, the media turn, and the basilar turn, were measured and 3 parts of the cochlea (apex, media, basilar) were calculated from the survival rate (%) of the outer hair cells and the inner hair cells. […]

[4] = tested on: Ndufs 4 KO mice; experiment: Hearing ability by auditory brainstem response (ABR) in Ndufs 4 KO mice; assay type: in vivo, mouse; conditions: vs non-administration KO
Method: Ndufs 4 KO mice (mutant mice due to the substitution of the second exon of the Ndufs 4 gene with Neo sandwiched between loxP sequences) were purchased from Jacson Laboratory. The genetic background of the mouse was C57BL/6, and 60 days old (body weight 10 to 13 g) was used. Compound #5 (1 mg/kg body weight/day) synthesized in Example 1 was orally administered to Ndufs 4 KO mice (administration group of Ndufs 4 KO mice, n=5), between 28 and 60 days of age, at 60 days of age, the hearing ability of the compound #5 administration group was evaluated by auditory brainstem response (ABR). As a control, the hearing ability of Nudfs 4 KO mice not received compound #5 (non-administration group of Ndufs 4 KO mice, n=4), wild type mice not received compound #5 (non-administration group of wild type mice, n=3) and Ndufs 4 hetero KO mice not received compound N #5 (non-administration group of Ndufs 4 hetero KO mice, n=4) was assessed by ABR at 60 days of age. In measuring the hearing ability, a mixture of ketamine (100 mg/kg body weight) and xylazine (20 mg/kg body weight) were anesthetized by intraperitoneal injection of mice. ABR was also analyzed using TDT System 3 workstation and BioSigRP software (Tucker-Davis Technologies). The averaging (1000 times) of the evoked response to the tone burst sound of each frequency (4, 8, 12, 16, and 32 kHz) was recorded. Stimuli sounds were presented at 5 dB intervals from each frequency, 100 dB SPL (Sound Pressure Level) to 10 dB SPL. […]
Using Ndufs 4 KO mice and their littermate wild type mice (littermate wild type mice), the hearing power of littermate wild type mice not received compound #5 (non-administration group of wild-type mice, n=5), Ndufs 4 KO mice not received compound #5 (non-administration group of Ndufs 4 KO mice, n=5) and Ndufs 4 KO mice received compound #5 (administration group of Ndufs 4 KO mice, n=5) were evaluated by ABR at 28 days of age and 60 days of age according to the method described in the item “6-1” of Example 6. […]

O=C(CC(C(=O)O)c1c[nH]c2ccccc12)c1ccc(F)cc1F (stereo not shown) [compound #5, 4-(2,4-Difluorophenyl)-2-(1H-indol-3-yl)-4-oxo-butanoic Acid]
amount of ATP production [1]: increases
amount of ATP production [2]: confirmed
survival rate of the inner hair cells ([3]; cisplatin 10 μM, compound 0, 1, 5, 10, 50 μM): almost no change in survival rate
survival rate of the inner hair cells ([3]; compound 10 μM, cisplatin 0, 5, 7.5, 10, 15, 20 μM, vs DMSO-treated group): hardly any difference
ABR threshold ([4]; Example 6, 1 mg/kg body weight/day oral, 28 to 60 days of age, measured at 60 days): lower than the ABR threshold in the non-administration group of Ndufs 4 KO mice
ABR threshold value ([4]; Example 7, 1 mg/kg body weight/day oral, at 60 days of age): decreased
ABR threshold ([4]; Example 8, 0.3 mg/kg body weight/day oral): decreased
